Experiments:
[1] = In vivo human and non-human animal studies
[2] = Solubility in water of the tartrate salt; type: physicochemical; settings: tartrate salt versus compound of formula I
From the text: The tartrate salt of pimavanserin may be prepared as an integrated part of the process for synthesizing the compound as described above by using tartaric acid as the salt forming acid. Alternatively, the tartrate salt may be formed by reaction of the isolated compound of formula I with tartaric acid.

[3] = Excipient compatibility study with crystalline Form A: Total Related Substance (TRS); type: physicochemical
Method: Binary mixtures of drug with each excipient were prepared by physically mixing 50.0 mg (±2.0 mg) of drug substance with the specified proportion of each excipient. The stability of the drug in the presence of each excipient was studied in dry samples as well as with 30% w/w (relative to bulk drug weight) de-ionized water. Each sample group was stored under the following conditions: 5° C. (for time=0 testing), 40° C./75% RH (relative humidity) one month, and 40° C./75% RH three months.

[4] = Excipient compatibility study with crystalline Form A: HPLC assay of % drug; type: physicochemical
Method: Physical mixtures of crystalline Form A and fourteen processing excipients, gelatin and hydroxypropyl methylcellulose capsules, and drug substance alone were prepared. […] Each sample group was stored under the following conditions: 5° C. (for time=0 testing), 40° C./75% RH (relative humidity) one month, and 40° C./75% RH three months. Bulk drug substance was weighed and added to a sample vial. De-ionized water was then measured (0.015 mL) and added to the vials designated as wet samples. The wet samples were then mixed using a vortex mixer for approximately 15 seconds to incorporate the water and the drug. Excipient was then weighed and added to appropriate vials. The contents of each vial were mixed for approximately 15 seconds using a vortex mixer to produce a uniform mixture of (wet or dry) drug/excipient. To prepare the capsule samples, the bulk drug substance was weighed directly into the capsule. The capsules were then placed into appropriate vials. Fifteen microliters of de-ionized water was added to the inside of capsules designated as wet samples. All samples were stored in 20 mL Type I clear glass scintillation vials with foil-lined screw-type vial caps were tightened by hand. Samples were stored in controlled room temperature/humidity until ready for testing. Other sample vials were stored at 40° C./75% RH unprotected from light and tested at one and three months. […] The vials were rinsed several times with diluent and added to the volumetric flasks. The contents of the capsules were transferred to 50 mL volumetric flasks and the capsule shells were also rinsed with diluent. Diluent was added to the volumetric flasks and they were sonicated for 10 minutes, then diluted to volume with diluent. The solutions were further diluted 5.0 mL into a 50 mL volumetric flask and brought to volume with diluent. These diluted solutions were used for the assay. All solutions were filtered through 0.45 micron PTFE filters, with the first 1-2 mL discarded before filling the HPLC autosampler vials. The diluted sample solutions were assayed against a reference standard of drug product prepared in a similar manner.

[5] = wet conditions (30% w/w water added)

CC(C)COc1ccc(CNC(=O)N(Cc2ccc(F)cc2)C2CCN(C)CC2)cc1 [pimavanserin, N-(1-methylpiperidin-4-yl)-N-(4-fluorophenylmethyl)-N′-(4-(2-methylpropyloxy)phenylmethyl)carbamide]
in vivo activity [1]: anti-psychotic, anti-dyskinesia, and anti-insomnia activity

tartrate salt of N-(4-fluorobenzyl)-N-(1-methylpiperidin-4-yl)-N′-(4-(2-methylpropyloxy)phenylmethyl)carbamide [pimavanserin tartrate]
solubility in water [2]: improved solubility in water

CC(C)COc1ccc(CNC(=O)N(Cc2ccc(F)cc2)C2CCN(C)CC2)cc1.CC(C)COc1ccc(CNC(=O)N(Cc2ccc(F)cc2)C2CCN(C)CC2)cc1.O=C(O)C(O)C(O)C(=O)O [#17 Drug Substance]
Total related substance, 1 month - Dry ([3]; dry, 1 month 40° C./75% RH): 1.38 | Total related substance, 3 month - Dry ([3]; dry, 3 month 40° C./75% RH): 2.72 | Total related substance, Time 0 - Dry ([3]; dry, time 0): 0.35 | Total related substance, 1 month - Wet ([3]; wet (30% w/w water), 1 month 40° C./75% RH): 1.67 | Total related substance, 3 month - Wet ([3]; wet (30% w/w water), 3 month 40° C./75% RH): 3.39 | Total related substance, Time 0 - Wet ([3]; wet (30% w/w water), time 0): 0.36 | % Drug One Month 40° C./75% RH ([4]; dry conditions): 94.9% | % Drug Three Months 40° C./75% RH ([4]; dry conditions): 95.9% | % Drug (time = 0) ([4]; dry conditions): 98.4% | % Drug One Month 40° C./75% RH [4, 5]: 91.2% | % Drug Three Months 40° C./75% RH [4, 5]: 93.5% | % Drug (time = 0) [4, 5]: 98.5%

— patent US20070264330A1 (priority 2006, published 2007)
